According to patent US20250339569A1, “CARBONIC ANHYDRASE IX LIGANDS” (priority 2021, published 2025):
Where two headings read alike, the source gives them in different places. Starred links: 1 amine or outer side, 2 acyl side, 3 side chain; linkers in the order of their positions; H or OH if unused. Positions of bridges follow the written chain, without caps; N, C: chain ends. Non-standard residues stand in square brackets, D forms with d. Residues, ends and D or L forms follow the SMILES beside them. *: point of attachment. Phe(3-NHCO(CH2)3SO2NH2) = N[C@@H](Cc1cccc(NC(=O)CCCS(N)(=O)=O)c1)C(=O)O; DOTA = O=C(O)CN1CCN(CC(=O)O)CCN(CC(=O)*)CCN(CC(=O)O)CC1; Propanoyl(3-SO2NH2) = NS(=O)(=O)CCC(=O)*; Phe(4-NH2) = Nc1ccc(C[C@H](N)C(=O)O)cc1; mXylylene = c1cc(C[*:1])cc(C[*:2])c1; X18 = NS(=O)(=O)c1ccc(C(=O)*)nc1; X1 = O=C(CN1CCN([*:1])CC1)[*:2]; X27 = NS(=O)(=O)c1ccc(C(=O)*)s1; Dap = NC[C@H](N)C(=O)O

Legend:
[1] = target: T1, CAIX-expressing human HT-29 colorectal cancer cells (Homo sapiens, UniProt Q16790); assay: FACS binding assay (IC50 determination, competition with tracer 3BP-2776 or 3BP-4149); settings: FACS binding assay, HT-29 cells, 4° C., 1 hour, read-out: pIC50 category (activity) (converted)
T1 construct: CAIX-expressing human HT-29 colorectal cancer cells; host or cells: HT-29 human colorectal cancer cells
Procedure, shortened: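 HT-29 cells in FACS buffer (PBS, 1% FCS) at 500.000 cells/ml were exposed to compounds competing with a labelled tracer, with biotinylated compounds detected by 1 μg/mL APC-streptavidin for 30 min on ice. APC/Cy5 median fluorescence was read by flow cytometry and IC50 derived by 4PL fit.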

[2] = target: T2, human carbonic anhydrase IX (hCAIX-Fc) (Homo sapiens, UniProt Q16790); assay: Surface plasmon resonance assay with hCAIX-Fc; type: binding; settings: 25° C.; for t1/2 category (activity): SPR dissociation half-life, hCAIX-Fc; for Kd: SPR, hCAIX-Fc captured, read-out: pKD category (activity) (converted)
T2 construct: purchased SinoBliological (Sino Biological) 10107-H02H

[3] = competition with tracer 3BP-4149 (3 nM, Cy5-labeled)
[4] = competition with tracer 3BP-2776 (10 nM, biotin-labeled)

| Structure (SMILES) | IC50 [1, 3] [nM] | t1/2 category (activity) [2] | Kd [2] [nM] | IC50 [1, 4] [nM] |
| --- | --- | --- | --- | --- |
| CC(C)C[C@@H]1NC(=O)[C@H](Cc2ccc(NC(=O)c3ccc(S(N)(=O)=O)s3)cc2)NC(=O)[C@H](CC(=O)O)NC(=O)[C@H]2CCCN2C(=O)[C@H](CCC(=O)O)NC(=O)[C@@H](NC(=O)[C@H](Cc2ccc(O)cc2)NC(=O)CN2CCN(C(=O)CN3CCN(CC(=O)O)CCN(CC(=O)O)CCN(CC(=O)O)CC3)CC2)CSCc2cccc(c2)CSC[C@@H](C(N)=O)NC(=O)[C@H](CO)NC(=O)[C@H](Cc2c[nH]c3ccccc23)NC(=O)[C@H]([C@@H](C)O)NC1=O [3BP-4457] ({DOTA}-[X1]YCE[dP]D[Phe(4-NH2)](X27)LTWSC-NH2; linker 3-12 via mXylylene) | < 10 | B (t1/2 between 5.1 and 15.0 minutes) | < 10 | – |
| CC(C)C[C@@H]1NC(=O)[C@H](Cc2ccc(NC(=O)c3ccc(S(N)(=O)=O)cn3)cc2)NC(=O)[C@H](CC(=O)O)NC(=O)[C@H]2CCCN2C(=O)[C@H](CCC(=O)O)NC(=O)[C@@H](NC(=O)[C@H](CCC(N)=O)NC(=O)CN2CCN(C(=O)CN3CCN(CC(=O)O)CCN(CC(=O)O)CCN(CC(=O)O)CC3)CC2)CSCc2cccc(c2)CSC[C@@H](C(N)=O)NC(=O)[C@H](CO)NC(=O)[C@H](Cc2c[nH]c3ccccc23)NC(=O)[C@H]([C@@H](C)O)NC1=O [3BP-4480] ({DOTA}-[X1]QCE[dP]D[Phe(4-NH2)](X18)LTWSC-NH2; linker 3-12 via mXylylene) | 10 to 79.4 | C (t1/2 between 2.1 and 5.0 minutes) | < 10 | – |
| CC(C)C[C@@H]1NC(=O)[C@H](Cc2cccc(NC(=O)CCCS(N)(=O)=O)c2)NC(=O)[C@H](CC(=O)O)NC(=O)[C@H]2CCCN2C(=O)[C@H](CCC(=O)O)NC(=O)[C@@H]2CSCc3cccc(c3)CSC[C@@H](C(N)=O)NC(=O)[C@H](CNC(=O)C[C@H](NC(=O)CN3CCN(CC(=O)O)CCN(CC(=O)O)CCN(CC(=O)O)CC3)C(=O)N2)NC(=O)[C@H](Cc2c[nH]c3ccccc23)NC(=O)[C@H]([C@@H](C)O)NC1=O [3BP-4488] ({DOTA}-DCE[dP]D[Phe(3-NHCO(CH2)3SO2NH2)]LTW[Dap]C-NH2; lactam 1-10; linker 2-11 via mXylylene) | < 10 | A (t1/2>15.0 minutes) | < 10 | – |
| CC(C)C[C@@H]1NC(=O)[C@H](Cc2ccc(NC(=O)CCS(N)(=O)=O)cc2)NC(=O)[C@H](CC(=O)O)NC(=O)[C@H]2CCCN2C(=O)[C@H](CCC(=O)O)NC(=O)[C@@H]2CSCc3cccc(c3)CSC[C@@H](C(N)=O)NC(=O)[C@H](CNC(=O)C[C@H](NC(=O)CN3CCN(CC(=O)O)CCN(CC(=O)O)CCN(CC(=O)O)CC3)C(=O)N2)NC(=O)[C@H](Cc2c[nH]c3ccccc23)NC(=O)[C@H]([C@@H](C)O)NC1=O [3BP-4489] ({DOTA}-DCE[dP]D[Phe(4-NH2)](Propanoyl(3-SO2NH2))LTW[Dap]C-NH2; lactam 1-10; linker 2-11 via mXylylene) | < 10 | A (t1/2>15.0 minutes) | < 10 | – |
| CC(C)C[C@@H]1NC(=O)[C@H](Cc2cccc(NC(=O)CCCS(N)(=O)=O)c2)NC(=O)[C@H](CC(=O)O)NC(=O)[C@H]2CCCN2C(=O)[C@H](CCC(=O)O)NC(=O)[C@@H]2CSCc3cccc(c3)CSC[C@@H](C(N)=O)NC(=O)[C@H](CNC(=O)C[C@H](NC(=O)CN3CCN(C(=O)CN4CCN(CC(=O)O)CCN(CC(=O)O)CCN(CC(=O)O)CC4)CC3)C(=O)N2)NC(=O)[C@H](Cc2c[nH]c3ccccc23)NC(=O)[C@H]([C@@H](C)O)NC1=O [3BP-4497] ({DOTA}-[X1]DCE[dP]D[Phe(3-NHCO(CH2)3SO2NH2)]LTW[Dap]C-NH2; lactam 2-11; linker 3-12 via mXylylene) | – | A (t1/2>15.0 minutes) | < 10 | 10 to 79.4 |
| CC(C)C[C@@H]1NC(=O)[C@H](Cc2ccc(NC(=O)CCS(N)(=O)=O)cc2)NC(=O)[C@H](CC(=O)O)NC(=O)[C@H]2CCCN2C(=O)[C@H](CCC(=O)O)NC(=O)[C@@H]2CSCc3cccc(c3)CSC[C@@H](C(N)=O)NC(=O)[C@H](CNC(=O)C[C@H](NC(=O)CN3CCN(C(=O)CN4CCN(CC(=O)O)CCN(CC(=O)O)CCN(CC(=O)O)CC4)CC3)C(=O)N2)NC(=O)[C@H](Cc2c[nH]c3ccccc23)NC(=O)[C@H]([C@@H](C)O)NC1=O [3BP-4498] ({DOTA}-[X1]DCE[dP]D[Phe(4-NH2)](Propanoyl(3-SO2NH2))LTW[Dap]C-NH2; lactam 2-11; linker 3-12 via mXylylene) | 10 to 79.4 | A (t1/2>15.0 minutes) | < 10 | – |
| CC(C)C[C@@H]1NC(=O)[C@H](Cc2ccc(NC(=O)CCS(N)(=O)=O)cc2)NC(=O)[C@H](CC(=O)O)NC(=O)[C@H]2CCCN2C(=O)[C@H](CCC(=O)O)NC(=O)[C@@H](NC(=O)[C@H](CCC(N)=O)NC(=O)CN2CCN(C(=O)CN3CCN(CC(=O)O)CCN(CC(=O)O)CCN(CC(=O)O)CC3)CC2)CSCc2cccc(c2)CSC[C@@H](C(N)=O)NC(=O)[C@H](CO)NC(=O)[C@H](Cc2c[nH]c3ccccc23)NC(=O)[C@H]([C@@H](C)O)NC1=O [3BP-4500] ({DOTA}-[X1]QCE[dP]D[Phe(4-NH2)](Propanoyl(3-SO2NH2))LTWSC-NH2; linker 3-12 via mXylylene) | – | A (t1/2>15.0 minutes) | < 10 | < 10 |
| CC(C)C[C@@H]1NC(=O)[C@H](Cc2cccc(NC(=O)CCCS(N)(=O)=O)c2)NC(=O)[C@H](CC(=O)O)NC(=O)[C@H]2CCCN2C(=O)[C@H](CCC(=O)O)NC(=O)[C@@H]2CSCc3cccc(c3)CSC[C@@H](C(N)=O)NC(=O)[C@H](CNC(=O)CC[C@H](NC(=O)CN3CCN(C(=O)CN4CCN(CC(=O)O)CCN(CC(=O)O)CCN(CC(=O)O)CC4)CC3)C(=O)N2)NC(=O)[C@H](Cc2c[nH]c3ccccc23)NC(=O)[C@H]([C@@H](C)O)NC1=O [3BP-4502] ({DOTA}-[X1]ECE[dP]D[Phe(3-NHCO(CH2)3SO2NH2)]LTW[Dap]C-NH2; lactam 2-11; linker 3-12 via mXylylene) | – | A (t1/2>15.0 minutes) | < 10 | < 10 |
| CC(C)C[C@@H]1NC(=O)[C@H](Cc2ccc(NC(=O)CCS(N)(=O)=O)cc2)NC(=O)[C@H](CC(=O)O)NC(=O)[C@H]2CCCN2C(=O)[C@H](CCC(=O)O)NC(=O)[C@@H]2CSCc3cccc(c3)CSC[C@@H](C(N)=O)NC(=O)[C@H](CNC(=O)CC[C@H](NC(=O)CN3CCN(C(=O)CN4CCN(CC(=O)O)CCN(CC(=O)O)CCN(CC(=O)O)CC4)CC3)C(=O)N2)NC(=O)[C@H](Cc2c[nH]c3ccccc23)NC(=O)[C@H]([C@@H](C)O)NC1=O [3BP-4504] ({DOTA}-[X1]ECE[dP]D[Phe(4-NH2)](Propanoyl(3-SO2NH2))LTW[Dap]C-NH2; lactam 2-11; linker 3-12 via mXylylene) | – | A (t1/2>15.0 minutes) | < 10 | < 10 |
| CC(C)C[C@@H]1NC(=O)[C@H](Cc2ccc(NC(=O)CCS(N)(=O)=O)cc2)NC(=O)[C@H](CC(=O)O)NC(=O)[C@H]2CCCN2C(=O)[C@H](CCC(=O)O)NC(=O)[C@@H]2CSCc3cccc(c3)CSC[C@@H](C(N)=O)NC(=O)[C@H](CNC(=O)CC[C@H](NC(=O)CN3CCN(CC(=O)O)CCN(CC(=O)O)CCN(CC(=O)O)CC3)C(=O)N2)NC(=O)[C@H](Cc2c[nH]c3ccccc23)NC(=O)[C@H]([C@@H](C)O)NC1=O [3BP-4505] ({DOTA}-ECE[dP]D[Phe(4-NH2)](Propanoyl(3-SO2NH2))LTW[Dap]C-NH2; lactam 1-10; linker 2-11 via mXylylene) | – | A (t1/2>15.0 minutes) | < 10 | < 10 |
